In ChEMBL document CHEMBL6071176, “Development of Phloroglucinol-Linked Tris-Quaternary Ammonium Salt Antimicrobial Peptide Mimics with Low Cytotoxicity and Broad-Spectrum Antibacterial Activity” (J Med Chem, 2024):
The source made the active and inactive calls. The rule behind the calls is not given here.

Tests used:
Staphylococcus aureus [1] = assay: Antimicrobial activity against Staphylococcus aureus assessed as inhibition of growth incubated for 18 hrs by CLSI guidelines based assay; format: functional
Enterococcus faecalis = assay: Antimicrobial activity against Enterococcus faecalis assessed as inhibition of growth incubated for 18 hrs by CLSI guidelines based assay; format: functional
Escherichia coli [2] = assay: Antimicrobial activity against Escherichia coli assessed as inhibition of growth incubated for 18 hrs by CLSI guidelines based assay; format: functional
[3] = Selectivity index, ratio of HC50 for sheep red blood cells to MIC for Staphylococcus aureus; format: toxicity, cell-based, RBC; details: read-out: Selectivity Index
[4] = Cytotoxicity against human Gastric mucosal cells measured after 24 hrs by CCK-8 assay; format: toxicity, cell-based, Gastric mucosal cell
Staphylococcus aureus [5] = assay: Antibacterial activity against methicillin-resistant Staphylococcus aureus assessed as inhibition of bacterial growth incubated for 18 hrs by CLSI guidelines based assay; format: functional
Staphylococcus aureus [6] = assay: Antibacterial activity against methicillin-resistant Staphylococcus aureus assessed as inhibition of bacterial growth measured after 3 hrs in presence of plasma; format: functional, organism-based
Staphylococcus aureus [7] = assay: Antibacterial activity against methicillin-resistant Staphylococcus aureus assessed as inhibition of bacterial growth measured immediately after addition in presence of plasma; format: functional, organism-based
Staphylococcus aureus [8] = assay: Bactericidal activity against Staphylococcus aureus assessed as bacterial killing in presence of 50% serum; format: functional, organism-based
Staphylococcus aureus [9] = assay: Bactericidal activity against early exponential phase Staphylococcus aureus assessed as bacterial killing at 3 ug/ml incubated for 4 hrs by time-kill assay; format: functional, organism-based; details: dose 3.0 µg/ml
Staphylococcus aureus [10] = assay: Bactericidal activity against early exponential phase Staphylococcus aureus assessed as bacterial killing at 3 ug/ml incubated for 12 hrs by time-kill assay; format: functional, organism-based; details: dose 3.0 µg/ml
Escherichia coli [11] = assay: Bactericidal activity against early exponential phase Escherichia coli assessed as bacterial killing at 3 ug/ml incubated for 6 hrs by time-kill assay; format: functional, organism-based; details: dose 3.0 µg/ml
Staphylococcus aureus [12] = assay: Bactericidal activity against late exponential phase Staphylococcus aureus assessed as bacterial elimination at 8 ug/ml incubated for 6 to 8 hrs by time-kill assay; format: functional; details: dose 8 µg/ml; time 6-8 hrs
Escherichia coli [13] = assay: Bactericidal activity against late exponential phase Escherichia coli assessed as bacterial elimination at 8 ug/ml incubated for 6 to 8 hrs by time-kill assay; format: functional; details: dose 8 µg/ml; time 6-8 hrs
Staphylococcus aureus [14] = assay: Resistance development in Staphylococcus aureus assessed as increase in MIC measured within 20 passages of continues culture; format: functional
Escherichia coli [15] = assay: Resistance development in Escherichia coli assessed as increase in MIC measured within 20 passages of continues culture; format: functional
Staphylococcus aureus [16] = assay: Anti-biofilim activity against Staphylococcus aureus biofilm assessed bacterial survival rate at 4 ug/ml measured after 24 hrs incubation; format: functional
Staphylococcus aureus [17] = assay: Anti-biofilim activity against Staphylococcus aureus biofilm assessed bacterial survival rate at 16 ug/ml measured after 24 hrs incubation; format: functional
Staphylococcus aureus [18] = assay: Anti-bacterial activity against 100 times rifampicin induced persistent cells of Staphylococcus aureus assessed as reduction in persistent cells at 32 times of MIC; format: functional
Staphylococcus aureus [19] = assay: Anti-microbial activity against Staphylococcus aureus assessed as bacterial growth inhibition in presence of 0.5 to […] ug/ml PG (exogenous bacterial cell membrane component) measured after 18 hrs; format: functional, organism-based
Staphylococcus aureus [20] = assay: Anti-microbial activity against Staphylococcus aureus assessed as bacterial growth inhibition in presence of PE (exogenous bacterial cell membrane component) measured after 18 hrs; format: functional, organism-based
Staphylococcus aureus [21] = assay: Anti-microbial activity against Staphylococcus aureus assessed as bacterial growth inhibition in presence of CL (exogenous bacterial cell membrane component) measured after 18 hrs; format: functional, organism-based
Cell membrane [22] = assay: Induction of membrane damage in Staphylococcus aureus assessed as nucleic acid leakage measured at 0.5 to 2 times of MIC by microplate spectrophotometry; format: subcellular; details: TDE = time-dependent effect
Cell membrane [23] = assay: Induction of membrane damage in Escherichia coli assessed as nucleic acid leakage measured at 0.5 to 2 times of MIC by microplate spectrophotometry; format: subcellular; details: TDE = time-dependent effect
Staphylococcus aureus [24] = assay: Induction of ROS level in Staphylococcus aureus assessed as increase in intracellular ROS level by measuring fold increase in fluorescent intensity at 0.5 ug/ml measured after 4.5 hrs by ROS-sensitive fluorescent probe DCF-DA staining based assay; format: functional; details: dose 0.5 µg/ml
Staphylococcus aureus [25] = assay: Induction of morphological changes in Staphylococcus aureus assessed as wrinkled/cracked surface at 4 ug/ml incubated for 4 hrs by Scanning electron microscopy (SEM); format: functional, organism-based; details: dose 4.0 µg/ml
Staphylococcus aureus [26] = assay: Up-regulation of riboflavin metabolic pathway genes in Staphylococcus aureus at 0.25 ug/ml and incubated for 4 hrs by Transcriptome analysis; format: functional, organism-based; details: dose 0.25 µg/ml
Staphylococcus aureus [27] = assay: Up-regulation of quorum sensing pathway genes in Staphylococcus aureus at 0.25 ug/ml and incubated for 4 hrs by Transcriptome analysis; format: functional, organism-based; details: dose 0.25 µg/ml
Staphylococcus aureus [28] = assay: Down-regulation of pyrimidine metabolic pathway genes in Staphylococcus aureus at 0.25 ug/ml and incubated for 4 hrs by Transcriptome analysis; format: functional, organism-based; details: dose 0.25 µg/ml
Staphylococcus aureus [29] = assay: Down-regulation of pyridoxal-phosphate-dependent enzyme in Staphylococcus aureus at 0.25 ug/ml and incubated for 4 hrs by Transcriptome analysis; format: functional, organism-based; details: dose 0.25 µg/ml
Staphylococcus aureus [30] = assay: Down-regulation of thiamine pyrophosphate enzyme in Staphylococcus aureus at 0.25 ug/ml and incubated for 4 hrs by Transcriptome analysis; format: functional, organism-based; details: dose 0.25 µg/ml
Staphylococcus aureus [31] = assay: Down-regulation of N-terminal TPP binding domain in Staphylococcus aureus at 0.25 ug/ml and incubated for 4 hrs by Transcriptome analysis; format: functional, organism-based; details: dose 0.25 µg/ml
[32] = Toxicity in female SPF Kunming mouse assessed as survival rate at 200 mg/kg/day, sc measured after 24 hrs; format: organism-based; details: in vivo
[33] = Toxicity in female SPF Kunming mouse assessed as pathological changes in spleen at 200 mg/kg/day, sc measured after 24 hrs by hematoxylin and eosin staining based assay; format: organism-based; details: in vivo
[34] = Toxicity in female SPF Kunming mouse assessed as pathological changes in kidney at 200 mg/kg/day, sc measured after 24 hrs by hematoxylin and eosin staining based assay; format: organism-based; details: in vivo
[35] = Toxicity in female SPF Kunming mouse assessed as change in HCT count at 20 mg/kg/day, ip measured after 24 hrs; format: organism-based; details: in vivo
[36] = Toxicity in female SPF Kunming mouse assessed as change in RBC count at 20 mg/kg/day, ip measured after 24 hrs; format: organism-based; details: in vivo
[37] = Toxicity in female SPF Kunming mouse assessed as change in PLT count at 20 mg/kg/day, ip measured after 24 hrs; format: organism-based; details: in vivo
[38] = Toxicity in female SPF Kunming mouse assessed as change in HBG count at 20 mg/kg/day, ip measured after 24 hrs; format: organism-based; details: in vivo
[39] = Toxicity in female SPF Kunming mouse assessed as change in MCV count at 20 mg/kg/day, ip measured after 24 hrs; format: organism-based; details: in vivo
[40] = Toxicity in female SPF Kunming mouse assessed as change in ALB level at 20 mg/kg/day, ip measured after 24 hrs; format: organism-based; details: in vivo
[41] = Toxicity in female SPF Kunming mouse assessed as change in CREA level at 20 mg/kg/day, ip measured after 24 hrs; format: organism-based; details: in vivo
Staphylococcus aureus [42] = assay: In vivo antibacterial activity against methicillin-resistant Staphylococcus aureus subcutaneously infected in SPF female Kunming mouse model assessed as bacteria count in dissected mouse at 10 mg/kg/day injected into blister after 6 hrs of infection measured after 6 consecutive treatments; format: functional, organism-based

CCCCCCCC[N+](C)(C)CCCCOc1cc(OCCCC[N+](C)(C)CCCCCCCC)cc(OCCCC[N+](C)(C)CCCCCCCC)c1.[Br-].[Br-].[Br-]
MIC (Staphylococcus aureus [1]): 0.5 µg/mL | MIC (Enterococcus faecalis): 1 µg/mL | MIC (Escherichia coli [2]): 2 µg/mL | selectivity ratio [3]: > 2560 | CC50 at 24 h [4]: < 153 µg/mL | MIC50 (Staphylococcus aureus [5]): 1 µg/mL | MIC90 (Staphylococcus aureus [5]): ≥ 16 µg/mL | Activity (Staphylococcus aureus [6]): Active | Activity (Staphylococcus aureus [7]): Active | Activity (Staphylococcus aureus [8]): Active | Activity (Staphylococcus aureus [9]): Active | Activity (Staphylococcus aureus [10]): Active | Activity (Escherichia coli [11]): Active | Activity (Staphylococcus aureus [12]): 100% | Activity (Escherichia coli [13]): 100% | MIC (Staphylococcus aureus [14]): 0.5 µg/mL | MIC (Escherichia coli [15]): 1 µg/mL | survival at 4 µg/mL (Staphylococcus aureus [16]): 2.3% | survival at 16 µg/mL (Staphylococcus aureus [17]): 0.01% | Activity (Staphylococcus aureus [18]): 5.7 log10CFU/ml | Activity (Staphylococcus aureus [19]): inactive | Activity (Staphylococcus aureus [20]): Active | Activity (Staphylococcus aureus [21]): Active | Activity (Cell membrane [22]): Tde | Activity (Cell membrane [23]): Tde | fold change (FC) (Staphylococcus aureus [24]): 3 | Activity (Staphylococcus aureus [25]): Active | Activity (Staphylococcus aureus [26]): Active | Activity (Staphylococcus aureus [27]): Active | Activity (Staphylococcus aureus [28]): Active | Activity (Staphylococcus aureus [29]): Active | Activity (Staphylococcus aureus [30]): Active | Activity (Staphylococcus aureus [31]): Active | survival at 24 h [32]: 100% | Activity [33]: Non-Toxic | Activity [34]: Non-Toxic | Activity [35]: Non-Toxic | Activity [36]: Non-Toxic | Activity [37]: Non-Toxic | Activity [38]: Non-Toxic | Activity [39]: Non-Toxic | Activity [40]: Non-Toxic | Activity [41]: Non-Toxic | Activity (Staphylococcus aureus [42]): Active
